# Measurements as given in patent publication US8088791B2, “Antibacterial agents” (Biots Scientific Management Pty Ltd, priority 2006, dated 2012).
# Tests used:
# Bacillus subtilis 168CA = experiment: Minimum Inhibitory Concentration (MIC) testing, broth microdilution, Bacillus subtilis; type: cell-based; details: Bacillus subtilis 168CA; read-out: Bacillus subtilis MICs Activity
# Summary of the method: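 MICs were scored A (≦8 μg/ml), B (16–64 μg/ml) or C (>64 μg/ml), read as the lowest concentration preventing visible growth by eye and spectrophotometry. Plates incubated overnight (16–20 h) at 37 °C, inoculum OD 0.09 diluted 1:100 in 2× broth, per NCCLS guidelines.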
# [1] = tested on: Staphylococcus aureus ATCC29213; experiment: Minimum Inhibitory Concentration (MIC) testing, broth microdilution, Staphylococcus aureus; type: cell-based; details: Staphylococcus aureus ATCC29213; read-out: Staphylococcus aureus MICs Activity
# Description: Compounds of this invention were tested for antimicrobial activity by susceptibility testing in liquid media. MICs for compounds against each strain were determined by a broth microdilution method according to the National Committee for Clinical Laboratory Standards (NCCLS) guidelines. (NCCLS. 2000. Methods for dilution antimicrobial susceptibility tests for bacteria that grow aerobically—fifth edition. Approved standard M7-A5. NCCLS, Wayne, Pa.)
# Briefly, test compounds are prepared in 100 μl of 1.6% DMSO solution in multiwell plates. Several bacterial colonies from a freshly streaked plate are transferred to an appropriate rich broth, such as Mueller Hinton. The cell suspension is adjusted to an optical density of 0.09 and further diluted 1:100 with warm 2× broth. This cell suspension is dispensed into the wells containing compound solution so that the final volume is 200 μl. The plates are incubated overnight (16-20 hours) at 37° C. and turbidity is scored by eye and quantified spectrophotometrically. The MIC is defined as the lowest concentration inhibiting visible growth.
# Some of the compounds of the Examples were also tested for activity against the pathogenic organism Staphylococcus aureus ATCC29213. […] Activities were again scored as ‘A’ if the MIC was ≦8 micrograms/ml, ‘B’ if the MIC was 16 to 64 micrograms/ml and ‘C’ if the MIC was greater than 64 micrograms/ml.
MIC (Bacillus subtilis 168CA) [µg/mL],MIC [1] [µg/mL],SMILES
< 8,< 8,"CC(C)c1ccc(-c2noc(COc3ccc(F)c(C(N)=O)c3F)n2)cc1 [Example 248, 2,6-Difluoro-3-[3-(4-isopropylphenyl)-1,2,4-oxadiazol-5-yl]methoxybenzenecarboxamide]"
< 8,< 8,"COc1ccc(-c2nc(COc3ccc(F)c(C(N)=O)c3F)sc2-c2cccc(N)c2)cc1 [Example 284, 2,6-Difluoro-3-[5-(3-amino-phenyl)-4-(4-methoxy-phenyl)-thiazol-2-ylmethoxy]-benzamide]"
< 8,16 to 64,"NC(=O)c1c(F)ccc(OCc2csc3ccccc23)c1F [Example 202, 3-(1-Benzothiophen-3-ylmethoxy)-2,6-difluorobenzenecarboxamide]"
< 8,< 8,"NC(=O)c1c(F)ccc(OCc2csc(-c3ccc(Cl)cc3)n2)c1F [Example 306, 3-[2-(4-Chloro-phenyl)-thiazol-4-ylmethoxy]-2,6-difluoro-benzamide]"
16 to 64,16 to 64,"Cc1csc(COc2ccc(F)c(C(N)=O)c2F)n1 [Example 193, 2,6-Difluoro-3-[(4-methyl-1,3-thiazol-2-yl)methoxy]benzenecarboxamide]"
< 8,< 8,NC(=O)c1c(F)ccc(OCc2nc3cc(C4CCCCC4)ccc3s2)c1F [Example 315]
< 8,< 8,"NC(=O)c1c(F)ccc(OCc2nc3cc(Oc4ccccc4)ccc3s2)c1F [Example 327, 2,6-Difluoro-3-(5-phenoxy-benzothiazol-2-ylmethoxy)-benzamide]"
< 8,< 8,"C#CCCCCCCCCCOc1ccc(F)c(C(N)=O)c1 [Example 75, 2-Fluoro-5-(10-undecynyloxy)benzenecarboxamide]"
< 8,< 8,"NC(=O)c1c(F)ccc(OCc2coc(-c3ccc(Cl)cc3)n2)c1F [Example 294, 3-[2-(4-Chloro-phenyl)-oxazol-4-ylmethoxy]-2,6-difluoro-benzamide]"
< 8,< 8,"NC(=O)c1c(F)ccc(OCc2nc(-c3ccccc3Cl)cs2)c1F [Example 99, 3-[4-(2-Chloro-phenyl)-thiazol-2-ylmethoxy]-2,6-difluoro-benzamide]"
< 8,< 8,"C#CCCCCCCCCCOc1ccc(Cl)c(C(N)=O)c1 [Example 69, 2-Chloro-5-(10-undecynyloxy)benzenecarboxamide]"
< 8,< 8,"CCCC/C=C/CCCCOc1cccc(C(N)=O)c1 [Example 58, 3-[(E)-5-Decenyloxy]benzenecarboxamide]"
< 8,< 8,"NC(=O)c1c(F)ccc(OCc2nc3cc(Br)ccc3s2)c1F [Example 123, 3-(5-Bromo-benzothiazol-2-ylmethoxy)-2,6-difluoro-benzamide]"
< 8,< 8,"CCCCCC/C=C/COc1ccc(F)c(C(N)=O)c1 [Example 74, 2-Fluoro-5-[(E)-2-nonenyloxy]benzenecarboxamide]"
< 8,< 8,"CCCC/C=C/CCOc1cccc(C(N)=O)c1 [Example 40, 3-[(E)-3-Octenyloxy]benzenecarboxamide]"
< 8,16 to 64,"NC(=O)c1c(F)ccc(OCc2ccc3c(Br)cccc3n2)c1F [Example 151, 3-(5-Bromo-quinolin-2-ylmethoxy)-2,6-difluoro-benzamide]"
< 8,< 8,"NC(=O)c1c(F)ccc(OCc2nc(-c3ccc(O)cc3)cs2)c1F [Example 290, 2,6-Difluoro-3-[4-(4-hydroxy-phenyl)-thiazol-2-ylmethoxy]-benzamide]"

MIC (Bacillus subtilis 168CA) [µg/mL],MIC [1] [µg/mL],SMILES
< 8,< 8,"CCCCCCOc1ccc(F)c(C(N)=O)c1F [Example 81, 2,6-Difluoro-3-(hexyloxy)benzenecarboxamide]"
< 8,< 8,"CC/C=C\CCCCOc1cccc(C(N)=O)c1 [Example 52, 3-[(Z)-5-Octenyloxy]benzenecarboxamide]"
< 8,16 to 64,"CCCCC#CCCOc1cccc(C(N)=O)c1 [Example 59, 3-(3-Octynyloxy)benzenecarboxamide]"
< 8,< 8,"NC(=O)c1c(F)ccc(OCc2nc(-c3ccc4c(c3)OCO4)no2)c1F [Example 322, 3-(3-Benzo[1,3]dioxol-5-yl-[1,2,4]oxadiazol-5-ylmethoxy)-2,6-difluoro-benzamide]"
< 8,< 8,"COc1ccc(-c2nc(COc3ccc(F)c(C(N)=O)c3F)sc2-c2cccnc2)cc1 [Example 121, 2,6-Difluoro-3-[4-(4-methoxy-phenyl)-5-pyridin-3-yl-thiazol-2-ylmethoxy]-benzamide]"
16 to 64,16 to 64,"NC(=O)c1c(F)ccc(OCC2COc3ccccc3O2)c1F (stereo not drawn) [Example 204, 3-(2,3-Dihydro-1,4-benzodioxin-2-ylmethoxy)-2,6-difluorobenzenecarboxamide]"
< 8,< 8,"NC(=O)c1c(F)ccc(OCc2nc(-c3ccc(C(F)(F)F)cc3)no2)c1F [Example 243, 2,6-Difluoro-3-(3-[4-(trifluoromethyl)phenyl]-1,2,4-oxadiazol-5-ylmethoxy)benzenecarboxamide]"
16 to 64,16 to 64,"Cc1cccc(COc2cccc(C(N)=O)c2)c1 [Example 29, 3-[(3-Methylbenzyl)oxy]benzenecarboxamide]"
< 8,< 8,"COc1ccc(-c2nc(COc3ccc(F)c(C(N)=O)c3F)sc2-c2ccc(N)cc2)cc1 [Example 285, 2,6-Difluoro-3-[5-(4-amino-phenyl)-4-(4-methoxy-phenyl)-thiazol-2-ylmethoxy]-benzamide]"
< 8,< 8,"NC(=O)c1c(F)ccc(OCc2nc(-c3ccc(OC(F)(F)F)cc3)cs2)c1F [Example 320, 2,6-Difluoro-3-[4-(4-trifluoromethoxy-phenyl)-thiazol-2-ylmethoxy]-benzamide]"
< 8,16 to 64,"CCOc1cccc(COc2ccc(F)c(C(N)=O)c2F)c1 [Example 196, 3-[(3-Ethoxybenzyl)oxy]-2,6-difluorobenzenecarboxamide]"
< 8,< 8,"NC(=O)c1c(F)ccc(OCc2nc3cc([N+](=O)[O-])ccc3s2)c1F [Example 117, 2,6-Difluoro-3-(5-nitro-benzothiazol-2-ylmethoxy)-benzamide]"
16 to 64,16 to 64,"NC(=O)c1c(F)ccc(OCc2csc(Nc3ccccc3)n2)c1F [Example 237, 3-[(2-Anilino-1,3-thiazol-4-yl)methoxy]-2,6-difluorobenzenecarboxamide]"
16 to 64,16 to 64,"NC(=O)c1ccnc(OCc2nc(-c3ccc(Cl)cc3)cs2)c1 [Example 275, 2-[4-(4-Chloro-phenyl)-thiazol-2-ylmethoxy]-isonicotinamide]"
< 8,16 to 64,"NC(=O)c1c(F)ccc(OCc2noc(-c3ccsc3)n2)c1F [Example 150, 2,6-Difluoro-3-(5-thiophen-3-yl-[1,2,4]oxadiazol-3-ylmethoxy)-benzamide]"
< 8,< 8,"CCCCCCCCCOc1cccc(C(N)=O)c1 [Example 1, 3-Nonyloxy-benzenecarboxamide]"
